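Each compound was tested at five concentrations against cells in 96-well plates for 48 hours. TGI: concentration producing complete growth inhibition.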
Assays:
Experiment in all cases: DTP human tumour cell line panel, 48 h
LXFL 529 NSCLC = test system: LXFL 529 NSCLC
EKVX NSCLC = test system: EKVX NSCLC
K-562 leukemia = test system: K-562 leukemia
HOP-62 NSCLC = test system: HOP-62 NSCLC
RXF-631 renal = test system: RXF-631 renal
SF-268 CNS = test system: SF-268 CNS
SK-OV-3 ovarian = test system: SK-OV-3 ovarian
SW-620 colon = test system: SW-620 colon
IGROV1 ovarian = test system: IGROV1 ovarian
HCT-15 colon = test system: HCT-15 colon
SF-295 CNS = test system: SF-295 CNS
786-0 renal = test system: 786-0 renal
COLO 205 colon = test system: COLO 205 colon
HL-60(TB) leukemia = test system: HL-60(TB) leukemia
A549 NSCLC = test system: A549 NSCLC
HCC-2998 colon = test system: HCC-2998 colon
NCI-H522 lung = test system: NCI-H522 lung
SNB-19 CNS = test system: SNB-19 CNS
SNB-75 CNS = test system: SNB-75 CNS
CCRF-CEM leukemia = test system: CCRF-CEM leukemia
OVCAR-8 ovarian = test system: OVCAR-8 ovarian
UACC-62 melanoma = test system: UACC-62 melanoma
DMS 114 small cell lung = test system: DMS 114 small cell lung
MOLT-4 leukemia = test system: MOLT-4 leukemia
ACHN renal = test system: ACHN renal
M14 melanoma = test system: M14 melanoma
KM20L2 colon = test system: KM20L2 colon
SK-MEL-28 melanoma = test system: SK-MEL-28 melanoma
U251 CNS = test system: U251 CNS
UO-31 renal = test system: UO-31 renal
HT29 colon = test system: HT29 colon
OVCAR-3 ovarian = test system: OVCAR-3 ovarian
RPMI-8226 leukemia = test system: RPMI-8226 leukemia
M19-MEL melanoma = test system: M19-MEL melanoma
SR leukemia = test system: SR leukemia
OVCAR-4 ovarian = test system: OVCAR-4 ovarian
CAKI-1 renal = test system: CAKI-1 renal
SK-MEL-2 melanoma = test system: SK-MEL-2 melanoma
HOP-92 NSCLC = test system: HOP-92 NSCLC
UACC-257 melanoma = test system: UACC-257 melanoma
NCI-H23 lung = test system: NCI-H23 lung
SF-539 CNS = test system: SF-539 CNS
MALME-3M melanoma = test system: MALME-3M melanoma
OVCAR-5 ovarian = test system: OVCAR-5 ovarian
A498 renal = test system: A498 renal
TK-10 renal = test system: TK-10 renal
SN12C renal = test system: SN12C renal
RXF 393 renal = test system: RXF 393 renal
NCI-H460 lung = test system: NCI-H460 lung
SNB-78 CNS = test system: SNB-78 CNS
DMS 273 small cell lung = test system: DMS 273 small cell lung
KM12 colon = test system: KM12 colon
LOX IMVI melanoma = test system: LOX IMVI melanoma
NCI-H226 lung = test system: NCI-H226 lung
DLD-1 colon = test system: DLD-1 colon
HCT-116 colon = test system: HCT-116 colon

Compound CC1=C(C)C(=O)C2=C(OCCCO2)C1=O has a TGI (LXFL 529 NSCLC) of 31.9 µM, a TGI (EKVX NSCLC) of 31 µM and a TGI (K-562 leukemia) of 54 µM. The TGI (HOP-62 NSCLC) was over 100 µM, the TGI (RXF-631 renal) was 31.5 µM and the TGI (SF-268 CNS) was 33.2 µM. For the same compound, the TGI (SK-OV-3 ovarian) was over 100 µM, the TGI (SW-620 colon) was 31.2 µM and the TGI (IGROV1 ovarian) was 33.3 µM. For the same compound, the TGI (HCT-15 colon) was over 100 µM, the TGI (SF-295 CNS) was 70.9 µM and the TGI (786-0 renal) was 33.3 µM. The TGI (COLO 205 colon) was over 100 µM, the TGI (HL-60(TB) leukemia) was 19 µM and the TGI (A549 NSCLC) was over 100 µM. For the same compound, the TGI (HCC-2998 colon) was over 100 µM, the TGI (NCI-H522 lung) was 33.1 µM and the TGI (SNB-19 CNS) was over 100 µM. The TGI (SNB-75 CNS) was 51.7 µM, the TGI (CCRF-CEM leukemia) was 8.11 µM and the TGI (OVCAR-8 ovarian) was 32.9 µM. It also gave a TGI (UACC-62 melanoma) of 32.7 µM, a TGI (DMS 114 small cell lung) of 33.5 µM and a TGI (MOLT-4 leukemia) of 5.33 µM. For the same compound, the TGI (ACHN renal) was 32.4 µM, the TGI (M14 melanoma) was 30.7 µM and the TGI (KM20L2 colon) was over 100 µM. It also gave a TGI (SK-MEL-28 melanoma) of over 100 µM, a TGI (U251 CNS) of over 100 µM and a TGI (UO-31 renal) of 30.1 µM. For the same compound, the TGI (HT29 colon) was 46.3 µM, the TGI (OVCAR-3 ovarian) was 32 µM and the TGI (RPMI-8226 leukemia) was 36.1 µM. It also gave a TGI (M19-MEL melanoma) of 33.3 µM and a TGI (SR leukemia) of 44.9 µM.
COc1ccc(C2=Nc3ccccc3SC(C)C2)cc1 (stereo not given) gave a TGI (LXFL 529 NSCLC) of over 100 µM, a TGI (EKVX NSCLC) of over 100 µM and a TGI (OVCAR-4 ovarian) of over 100 µM. It also gave a TGI (CAKI-1 renal) of over 100 µM, a TGI (SK-MEL-2 melanoma) of over 100 µM and a TGI (HOP-92 NSCLC) of over 100 µM. It also gave a TGI (K-562 leukemia) of 83.3 µM, a TGI (HOP-62 NSCLC) of over 100 µM and a TGI (RXF-631 renal) of over 100 µM. The TGI (UACC-257 melanoma) was over 100 µM, the TGI (NCI-H23 lung) was over 100 µM and the TGI (SF-268 CNS) was over 100 µM. It also gave a TGI (SK-OV-3 ovarian) of over 100 µM, a TGI (SF-539 CNS) of over 100 µM and a TGI (SW-620 colon) of over 100 µM. The TGI (IGROV1 ovarian) was over 100 µM, the TGI (MALME-3M melanoma) was over 100 µM and the TGI (HCT-15 colon) was over 100 µM. The TGI (SF-295 CNS) was over 100 µM, the TGI (OVCAR-5 ovarian) was over 100 µM and the TGI (786-0 renal) was over 100 µM. It also gave a TGI (A498 renal) of over 100 µM, a TGI (COLO 205 colon) of over 100 µM and a TGI (HL-60(TB) leukemia) of over 100 µM. For the same compound, the TGI (A549 NSCLC) was over 100 µM, the TGI (HCC-2998 colon) was over 100 µM and the TGI (TK-10 renal) was over 100 µM. The TGI (SN12C renal) was over 100 µM, the TGI (NCI-H522 lung) was over 100 µM and the TGI (SNB-19 CNS) was over 100 µM. It also gave a TGI (SNB-75 CNS) of over 100 µM, a TGI (RXF 393 renal) of over 100 µM and a TGI (CCRF-CEM leukemia) of over 100 µM. It also gave a TGI (OVCAR-8 ovarian) of over 100 µM, a TGI (NCI-H460 lung) of over 100 µM and a TGI (UACC-62 melanoma) of over 100 µM. For the same compound, the TGI (DMS 114 small cell lung) was over 100 µM, the TGI (MOLT-4 leukemia) was over 100 µM and the TGI (SNB-78 CNS) was over 100 µM. The TGI (DMS 273 small cell lung) was over 100 µM, the TGI (ACHN renal) was over 100 µM and the TGI (M14 melanoma) was over 100 µM. The TGI (KM20L2 colon) was over 100 µM, the TGI (SK-MEL-28 melanoma) was over 100 µM and the TGI (U251 CNS) was over 100 µM. For the same compound, the TGI (UO-31 renal) was over 100 µM, the TGI (KM12 colon) was over 100 µM and the TGI (HT29 colon) was over 100 µM. The TGI (OVCAR-3 ovarian) was over 100 µM, the TGI (RPMI-8226 leukemia) was 60.2 µM and the TGI (M19-MEL melanoma) was over 100 µM. It also gave a TGI (LOX IMVI melanoma) of over 100 µM, a TGI (NCI-H226 lung) of over 100 µM and a TGI (DLD-1 colon) of over 100 µM. The TGI (HCT-116 colon) was 33 µM.

Reference: PubChem BioAssay (NCI)
